Experimental data taken from PMC9226319, “Peripherally restricted transthyretin-based delivery system for probes and therapeutics avoiding opioid-related side effects” (Nature Communications, 2022).
Several values for one entry are separate records, joined by “and”; a condition that tells them apart may be missing. Identical values can stand only once.

Molecular target: TTR in human serum (Homo sapiens, UniProt P02766)
Assay: TTR serum fluorescent probe exclusion (FPE) selectivity assay
Type: binding
Details: ligand 10 µM; for % TTR occupancy in human serum: FPE probe 3.6 µM, 3 h reading relative to probe alone, text mean ± s.d., table replicates; for %FPE probe fluorescence: human serum, replicates

% TTR occupancy in human serum | %FPE probe fluorescence (time 0.000 h) | %FPE probe fluorescence (time 0.083 h) | %FPE probe fluorescence (time 0.250 h) | %FPE probe fluorescence (time 0.500 h) | SMILES | %FPE probe fluorescence (time 1.000 h) | %FPE probe fluorescence (time 1.250 h) | %FPE probe fluorescence (time 1.500 h) | %FPE probe fluorescence (time 1.750 h) | %FPE probe fluorescence (time 2.000 h) | %FPE probe fluorescence (time 2.250 h) | %FPE probe fluorescence (time 2.500 h) | %FPE probe fluorescence (time 2.750 h) | %FPE probe fluorescence (time 3.000 h) | %FPE probe fluorescence (time 3.500 h) | %FPE probe fluorescence (time 3.750 h) | %FPE probe fluorescence (time 4.000 h) | %FPE probe fluorescence (time 4.250 h) | %FPE probe fluorescence (time 4.500 h) | %FPE probe fluorescence (time 4.750 h) | other results
97.40% and 95.62% and 96.92% and 97.81% | 0.000% | 0.700% and 0.333% and 1.346% and -0.971% | 0.446% and 0.461% and 3.649% and -0.301% | -1.954% and 0.832% and 3.724% and 2.441% | Cc1n[nH]c(C)c1CCCOc1cc(C(=O)O)ccc1F [AG10, reference compound] | -0.363% and 4.377% and 2.966% and 3.350% | 2.954% and 2.394% and 3.246% and -1.477% | 2.170% and 0.641% and 2.641% and 0.126% | 0.743% and 3.255% and 1.620% and 2.521% | 4.231% and 0.837% and 2.557% and 0.855% | 5.793% and 2.286% and 2.057% and 0.029% | 6.054% and 2.118% and 3.144% and 0.438% | 2.727% and 2.921% and 3.595% and 1.032% | 2.597% and 4.380% and 3.077% and 2.193% | 3.724% and 3.796% and 4.505% and 2.484% | 3.879% and 3.578% and 5.075% and 1.835% | 3.514% and 5.359% and 4.237% and 1.611% | 3.887% and 3.398% and 4.915% and 2.063% | 4.733% and 4.892% and 5.145% and 3.486% | 6.115% and 5.517% and 7.470% and 4.138% | %FPE probe fluorescence (time 5.000 h): 6.088% and 5.023% and 7.566% and 3.162%; %FPE probe fluorescence (time 5.250 h): 5.909% and 5.424% and 7.406% and 4.467%; %FPE probe fluorescence (time 5.500 h): 6.587% and 5.102% and 7.881% and 3.568%; %FPE probe fluorescence (time 5.750 h): 6.453% and 4.461% and 7.648% and 5.604%; %FPE probe fluorescence (time 6.000 h): 4.737% and 6.705% and 8.837% and 3.939%
47.45% and 46.83% and 51.34% and 50.15% | 0.000% | 1.299% and -1.005% and 0.704% and 3.155% | 4.449% and 1.397% and 6.031% and 9.730% | 5.578% and 5.344% and 9.630% and 15.940% | O=C(O)c1ccc2nc(-c3cc(Cl)cc(Cl)c3)oc2c1 [Tafamidis, reference compound] | 17.103% and 15.634% and 16.546% and 22.347% | 23.082% and 19.584% and 22.707% and 26.257% | 27.125% and 23.274% and 25.961% and 28.688% | 32.902% and 29.136% and 30.570% and 32.212% | 35.080% and 33.047% and 36.500% and 37.379% | 40.669% and 40.161% and 39.661% and 42.469% | 46.027% and 42.493% and 42.354% and 44.462% | 50.625% and 47.468% and 47.510% and 47.875% | 53.169% and 48.662% and 49.846% and 52.554% | 60.381% and 56.275% and 57.091% and 59.281% | 61.493% and 61.080% and 58.641% and 60.288% | 65.122% and 63.511% and 61.468% and 61.493% | 66.463% and 64.406% and 63.696% and 64.254% | 68.966% and 68.075% and 65.963% and 66.999% | 72.160% and 67.655% and 67.312% and 67.678% | % TTR occupancy in human serum (listed as tafamidis): 48.9 ± 2.2%; %FPE probe fluorescence (time 5.000 h): 70.882% and 70.753% and 66.636% and 68.909%; %FPE probe fluorescence (time 5.250 h): 72.950% and 73.018% and 69.707% and 71.230%; %FPE probe fluorescence (time 5.500 h): 75.965% and 73.410% and 70.521% and 70.704%; %FPE probe fluorescence (time 5.750 h): 76.955% and 73.721% and 71.869% and 74.221%; %FPE probe fluorescence (time 6.000 h): 78.267% and 76.878% and 72.520% and 75.177%
